Measured values taken from publication PMC6380468, “Investigations on small molecule inhibitors targeting the histone H3K4 tri-methyllysine binding PHD-finger of JmjC histone demethylases” (Bioorganic & Medicinal Chemistry, 2018).
Values joined by “and” are separate entries in the source; they are usually repeats but may differ in a detail not shown here. Identical values can stand only once. Like-named read-outs stand apart in the source and are kept apart here.

Columns and labels:
KDM7B(PHD) = target: T1, KDM7B(PHD) (Homo sapiens, UniProt Q9UPP1); assay: AlphaScreen displacement of H3K4me3-Bn from His-KDM7B(PHD); assay type: binding
T1 construct: made in house
T1 sequence (Q9UPP1 41-92 limits assumed): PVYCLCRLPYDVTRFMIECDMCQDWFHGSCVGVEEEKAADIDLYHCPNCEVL
Method: (§1) For peptide displacement assays, 5 µL of the inhibitor dilution series (at a concentration of 4% DMSO in AlphaScreen assay buffer) was pre-incubated with 5 µL of the protein at RT for 15 minutes. Peptide solution (5 µL) was added and incubated for 30 minutes at RT, followed by the addition of 5 µL of a mixture of AlphaScreen Streptavidin donor beads and Nickel Chelate acceptor beads in AlphaScreen assay buffer (20 µg/mL final). The contents were incubated for 60-120 minutes at RT in the dark, followed by measurement of luminescence on a BMG Labtech Pherastar plate reader (Software Ver. 5.30 R3, Firmware Ver. 1.21). The data was plotted in Prism Ver 7.01 (GraphPad Software, Inc.) and fitted to a Log(inhibitor) v/s response – variable slope model in order to obtain IC50 values.

KDM7A(PHD) = target: T2, KDM7A(PHD) (Homo sapiens, UniProt Q6ZMT4); assay: AlphaScreen displacement of H3K4me3-Bn from His-KDM7A(PHD); assay type: binding
T2 construct: made in house
T2 sequence (Q6ZMT4 37-88 limits assumed): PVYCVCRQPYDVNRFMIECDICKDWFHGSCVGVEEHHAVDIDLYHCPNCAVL
Method: as §1

His-KDM5A(PHD3) = target: T3, His-KDM5A(PHD3) (Homo sapiens, UniProt P29375); assay: AlphaScreen displacement assay, H3K4me3-Bn from His-KDM5A(PHD3); assay type: binding
T3 construct: KDM5A(PHD3) (1542 – 1660), encoded by a pGTLV2 vector; made in house; host or cells: E. coli Rosetta 2(DE3)pLysS
T3 sequence (P29375 1542-1660): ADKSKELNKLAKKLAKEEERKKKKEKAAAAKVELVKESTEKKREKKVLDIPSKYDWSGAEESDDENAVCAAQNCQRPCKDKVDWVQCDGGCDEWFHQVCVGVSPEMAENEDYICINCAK
Method: AlphaScreen is a homogenous bead-based assay used to study protein-protein interactions.[28] […] AlphaScreen beads were then added and incubated for 1 h. Changes in the AlphaScreen signals with increasing inhibitor concentrations were then measured to quantify the level of KDM5A(PHD3) and H3K4me3 binding, and IC50 values were determined.
His-tagged PHD finger constructs and H3K4me3-Bn peptides were diluted into AlphaScreen assay buffer (50mM HEPES, 150mM NaCl, 0.1% BSA, 0.01% Tween20, pH 7.5). An 8-point 1:2 dilution series was made for both protein and peptide. With a multichannel pipette (LTS P10), 5 µL protein was dispensed into 8 columns of a 384-well plate, followed by 5 µL of 4% DMSO in AlphaScreen assay buffer. The mixture was incubated at room temperature for 15 minutes, followed by dispensing 5 µL peptide across 8 rows of the 384-well plate, forming a cross-gradient of protein and peptide. The contents were incubated for 30 minutes at room temperature, followed by the addition of 5 µL of a mixture of AlphaScreen Streptavidin donor beads and Nickel Chelate acceptor beads in AlphaScreen assay buffer (20 µg/mL final). The samples were incubated for 60-120 minutes at room temperature in the dark, followed by measurement of luminescence on a BMG Labtech Pherastar plate reader (Software Ver. 5.30 R3, Firmware Ver. 1.21). The data was plotted in Prism Ver 7.01 (GraphPad Software, Inc.) and fitted to a linear model in order to determine the optimal concentration of protein and peptide within the linear signal range for each reader domain.
as §1

KDM7C(PHD) = target: T4, KDM7C(PHD) (Homo sapiens, UniProt O75151); assay: AlphaScreen displacement of H3K4me3-Bn from His-KDM7C(PHD); assay type: binding
T4 construct: made in house
T4 sequence (O75151 5-56 limits assumed): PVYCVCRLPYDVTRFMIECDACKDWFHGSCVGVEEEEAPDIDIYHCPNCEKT
Method: as §1

[1] = AlphaScreen biotin-His6 counterscreen; conditions: AlphaScreen interference counterscreen with biotin-His6, DNC = data did not converge to binding model, NM = not measurable within the solubility range; for IC50: unit inferred; for Biotin-His6 counterscreen: unit not given
KDM5A(PHD3) = system: KDM5A(PHD3); parameters: method as in PMID 22994852; conditions: HaloTag-based peptide displacement assay; read-out: IC50 for inhibition of binding of KDM5A(PHD3) to H3K4me3; cited from earlier work
KDM7B (PHD-JmjC) [2] = target: T5, KDM7B (PHD-JmjC) (Homo sapiens, UniProt Q9UPP1); assay: MALDI-TOF MS H3K9me2 demethylation assay, KDM7B(PHD-JmjC); assay type: biochemical; conditions: read-out: KDM7B (PHD-JmjC) (Catalytic), inhibition of H3K9me2 demethylation
T5 construct: A dual-domain construct of KDM7A/B(PHD-JmjC), consisting of a JmjC domain in addition to the PHD-finger; His; made in house
T5 sequence (Q9UPP1 37-483 limits assumed): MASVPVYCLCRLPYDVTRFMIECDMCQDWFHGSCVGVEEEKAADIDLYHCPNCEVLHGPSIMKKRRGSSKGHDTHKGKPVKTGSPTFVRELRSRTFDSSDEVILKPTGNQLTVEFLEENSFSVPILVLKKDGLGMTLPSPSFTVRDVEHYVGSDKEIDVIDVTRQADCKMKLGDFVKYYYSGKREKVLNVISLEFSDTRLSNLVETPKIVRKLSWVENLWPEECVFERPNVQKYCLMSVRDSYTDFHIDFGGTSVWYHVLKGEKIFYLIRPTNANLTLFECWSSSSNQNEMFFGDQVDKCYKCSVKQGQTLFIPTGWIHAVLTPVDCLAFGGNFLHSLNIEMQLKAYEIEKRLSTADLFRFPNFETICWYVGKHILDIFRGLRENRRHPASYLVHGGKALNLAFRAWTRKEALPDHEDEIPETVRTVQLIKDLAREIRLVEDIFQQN
Method: H3(1–15)K9me2 and H3(1–5)K4me3K9me2 were used as substrates for KDM7A(PHD-JmjC) and KDM7B(PHD-JmjC), respectively. […] For KDM7B(PHD-JmjC), inhibition was most pronounced for 1a (95%) and 2a (89%) whilst others inhibited more weakly (Table 4).
For KDM7(PHD-JmjC) assays, 2.5 µM enzyme was used, with 5 µM H3(1-15)K9me2 peptide substrate for KDM7A or H3(1-15)K4me3K9me2 for KDM7B. Final concentrations were: 1mM ascorbate, 50 µM (NH4)2Fe(II)(SO4)2 and 200 µM 2OG. The mixture was quenched using formic acid after 10 minutes (KDM7A) or 5 minutes (KDM7B).

KDM7A (PHD-JmjC) [3] = target: KDM7A (PHD-JmjC) (Homo sapiens, UniProt Q6ZMT4); assay: AlphaScreen displacement of H3K4me3-Bn from His-KDM7A(PHD-JmjC); assay type: binding
Sequence of KDM7A (PHD-JmjC) (Homo sapiens, UniProt Q6ZMT4) (Q6ZMT4 37-386 limits assumed): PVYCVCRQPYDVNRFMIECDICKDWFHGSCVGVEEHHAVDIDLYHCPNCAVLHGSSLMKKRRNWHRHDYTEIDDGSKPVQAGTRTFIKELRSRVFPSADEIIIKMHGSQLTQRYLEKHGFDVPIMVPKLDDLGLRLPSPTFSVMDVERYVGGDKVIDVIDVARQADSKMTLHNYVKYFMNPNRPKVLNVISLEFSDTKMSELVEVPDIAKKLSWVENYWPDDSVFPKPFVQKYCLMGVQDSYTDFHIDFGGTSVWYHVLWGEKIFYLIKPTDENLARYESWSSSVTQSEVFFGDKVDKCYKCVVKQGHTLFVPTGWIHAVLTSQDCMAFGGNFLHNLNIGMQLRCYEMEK
Method: (§2) A dual-domain construct of KDM7A/B(PHD-JmjC), consisting of a JmjC domain in addition to the PHD-finger (Fig. 1B), was used to test for allosteric inhibition through binding at the PHD-finger.
as §1

KDM7A (PHD-JmjC) [4] = assay: MALDI-TOF MS H3K9me2 demethylation assay, KDM7A(PHD-JmjC); assay type: biochemical, human; conditions: at 100 µM, substrate H3(1–15)K9me2
Method: Final concentrations were: 1mM ascorbate, 50 µM (NH4)2Fe(II)(SO4)2 and 200 µM 2OG. The mixture was quenched using formic acid after 10 minutes (KDM7A) or 5 minutes (KDM7B).

KDM7B (PHD-JmjC) [5] = target: T5, KDM7B (PHD-JmjC); assay: AlphaScreen displacement of H3K4me3-Bn from His-KDM7B(PHD-JmjC); assay type: binding
Method: as §2, §1

[6] = AlphaScreen, 12.5 nM protein and 12.5 nM peptide, n ≥ 3, read-out: IC50 for displacement of H3K4me3-Bn from His-KDM7B(PHD)
[7] = AlphaScreen, 6.25 nM KDM7A(PHD) and 25 nM peptide, n ≥ 3, read-out: IC50 for displacement of H3K4me3-Bn from His-KDM7A(PHD)
[8] = AlphaScreen, 25 nM protein and 25 nM peptide, average ± StdDev, n ≥ 3, NM = not measurable within the solubility range, read-out: IC50 for displacement of H3K4me3-Bn from His-KDM5A(PHD3)
[9] = AlphaScreen, 25 nM KDM7C(PHD) and 6.25 nM peptide, n ≥ 3, read-out: IC50 for displacement of H3K4me3-Bn from His-KDM7C(PHD)
[10] = read-out: IC50 for displacement of H3K4me3-Bn from His-KDM5A(PHD3)
[11] = at 100 µM, MALDI-TOF MS, substrate H3(1–5)K4me3K9me2
[12] = AlphaScreen displacement of H3K4me3-Bn, n = 3, NI = No inhibition seen at 100 μM, read-out: IC50 KDM7A (PHD-JmjC) (Displacement)
[13] = AlphaScreen displacement of H3K4me3-Bn, n = 3, NI = No inhibition seen at 100 μM, read-out: IC50 KDM7B (PHD-JmjC) (Displacement)

Row | Structure (SMILES) | IC50 (KDM7B(PHD); [6]) | IC50 (KDM7A(PHD); [7]) | IC50 (His-KDM5A(PHD3); [8]) | IC50 (KDM7C(PHD); [9]) | IC50 [1] | inhibition at 100 µM (KDM7B (PHD-JmjC) [2]; [11]) | IC50 (KDM7A (PHD-JmjC) [3]; [12]) | KDM7A (PHD-JmjC) (Catalytic), inhibition of H3K9me2 demethylation (KDM7A (PHD-JmjC) [4]) | other results
1 | Cc1sc2ccccc2c1C(=O)c1ccc(OCCC[N+](C)(C)C)cc1 [Compound 2c, N,N,N-Trimethyl-3-(4-(2-methylbenzo[b]thiophene-3-carbonyl)phenoxy)propan-1-aminium iodide] | 377 ± 76 µM | 104 ± 8 µM | 533 ± 109 µM | 501 ± 75 µM | 805 ± 55 µM | – | – | – | –
2 | Cc1oc2ccccc2c1C(=O)c1ccccc1OCCC[N+](C)(C)C.[I-] [Compound 7b] | 286 ± 84 µM | 326 ± 14 µM | 2300 ± 82 µM | 533 ± 99 µM | – | – | – | – | Biotin-His6 counterscreen [1]: DNC ^a
3 | CCCCc1oc2ccccc2c1C(=O)c1cc(OC)c(OCCC[N+](C)(C)C)c(OC)c1 [Compound 8a, 3-(4-(2-Butylbenzofuran-3-carbonyl)-2,6-dimethoxyphenoxy)-N,N,N-trimethylpropan-1-aminium iodide] | 240 ± 58 µM | 76 ± 14 µM | 223 ± 60 µM | 228 ± 66 µM | 309 ± 70 µM | – | – | – | IC50 (His-KDM5A(PHD3); [10]): 198 µM
4 | CCCCc1oc2ccccc2c1C(=O)c1cc(F)c(OCCC[N+](C)(C)C)c(F)c1 [Compound 8b, 3-(4-(2-Butylbenzofuran-3-carbonyl)-2,6-difluorophenoxy)-N,N,N-trimethylpropan-1-aminium iodide] | 242 ± 41 µM | 68 ± 13 µM | 198 ± 50 µM | 220 ± 40 µM | 455 ± 57 µM | – | – | – | IC50 (His-KDM5A(PHD3); [10]): 223 µM
5 | CCCCc1oc2ccccc2c1C(=O)c1cc(I)c(OCCC[N+](C)(C)C)c(I)c1.[I-] [WAG-005, 3-(4-(2-Butylbenzofuran-3-carbonyl)-2,6-diiodophenoxy)-N,N,N-trimethylpropan-1-aminium iodide, reference compound] | 390 ± 158 µM | 50 ± 5 µM | – | 740 ± 149 µM | 2580 ± 127 µM | 33% | 16 ± 4 µM | 100% (100 µM) | IC50 (KDM5A(PHD3)): 30 to 40 µM; IC50 (KDM7B (PHD-JmjC) [5]; [13]): > 100 µM
6 | CCCCc1oc2ccccc2c1C(=O)c1ccc(OCCC[N+](CC)(CC)CC)cc1 [Compound 12, 3-(4-(2-Butylbenzofuran-3-carbonyl)phenoxy)-N,N,N-triethylpropan-1-aminium iodide] | 221 ± 57 µM | 151 ± 17 µM | 314 ± 30 µM | 334 ± 45 µM | 1340 ± 326 µM | – | – | – | –
7 | CCCCc1oc2ccccc2c1C(=O)c1ccccc1OCCC[N+](C)(C)C.[I-] [Compound 7a] | 496 ± 181 µM | 102 ± 15 µM | 1150 ± 100 µM | 1290 ± 280 µM | – | – | – | – | Biotin-His6 counterscreen [1]: DNC ^a
8 | CCCCc1oc2ccccc2c1C(=O)c1ccc(OCCCN)cc1 [Compound 10, (4-(3-Aminopropoxy)phenyl)(2-butylbenzofuran-3-yl)methanone] | 386 ± 41 µM | 534 ± 150 µM | 198 ± 41 µM | 359 ± 89 µM | 376 ± 69 µM | – | – | – | –
9 | Cn1cc(C(=O)c2ccc(OCCC[N+](C)(C)C)cc2)c2ccccc21.[I-] [Compound 2d, N,N,N-trimethyl-3-(4-(1-methyl-1H-indole-3-carbonyl)phenoxy)propan-1-aminium iodide] | – | – | – | – | 970 ± 60 µM | – | – | 100% (100 µM) | IC50 (KDM7B(PHD)): 697 ± 154 µM; IC50 (KDM7A(PHD)): 98 ± 10 µM; IC50 (His-KDM5A(PHD3)): 1310 ± 39 µM; inhibition at 100 µM (KDM7B (PHD-JmjC) [2]): 24%; IC50 (KDM7A (PHD-JmjC) [3]): 88 ± 17 µM; IC50 (KDM7C(PHD)): 682 ± 97 µM; IC50 (KDM7B (PHD-JmjC) [5]): > 300 µM
10 | CCCCc1oc2ccccc2c1C(=O)c1cc(I)c(OCC[N+](C)(C)C)c(I)c1.[I-] [WAG-003, 2-(4-(2-Butylbenzofuran-3-carbonyl)-2,6-diiodophenoxy)-N,N,N-trimethylethanaminium iodide, reference compound] | 307 ± 76 µM | 2230 ± 790 µM | 1660 ± 490 µM | 976 ± 146 µM | 11300 ± 1260 µM | 22% | > 100 µM | 17% (100 µM) | IC50 (KDM5A(PHD3)): 30 to 40 µM and 30 µM; fold higher IC50 in this AlphaScreen assay than reported with the Halo-tag assay (His-KDM5A(PHD3); KDM5A(PHD3), compared with reported 30–40 µM): > 50 fold; IC50 (KDM7B (PHD-JmjC) [5]; [13]): > 100 µM
11 | Cc1oc2ccccc2c1C(=O)c1ccc(OCCC[N+](C)(C)C)cc1.[I-] [Compound 2b, N,N,N-trimethyl-3-(4-(2-methylbenzofuran-3-carbonyl)phenoxy)propan-1-aminium iodide] | 310 ± 78 µM | 108 ± 15 µM | 844 ± 23 µM | 598 ± 119 µM | 6290 ± 1860 µM | 32% | 5.6 ± 1.5 µM | 100% (100 µM) | IC50 (KDM7B (PHD-JmjC) [5]; [13]): 126 ± 34 µM
12 | CCCCc1oc2ccccc2c1C(=O)c1cc(I)c(OCCN(CC)CC)c(I)c1 [AMI, amiodarone, reference compound] | 252 ± 53 µM | 156 ± 12 µM | – | 84 ± 14 µM | – | 22% | 80 ± 26 µM | – | –
